Measurements from US11306095B2 (EAST CHINA UNIVERSITY OF SCIENCE AND TECHNOLOGY, priority 2015, dated 2022).
Values after ≈ are worked out from the molar mass of the structure shown.

Legend:
[1] = test system: H1975 cells (EGFR L858R/T790M); assay: Inhibitory activity on cell proliferation, H1975; format: cell-based; settings: Homo sapiens, NCI-H1975; H1975, 72 hours; read-out: Inhibitory activity on proliferation of cells (IC50, μM) H1975
[2] = test system: A431 cells (EGFR wild type); assay: Inhibitory activity on cell proliferation, A431; format: cell-based; settings: Homo sapiens, A-431; A431, 72 hours; read-out: Inhibitory activity on proliferation of cells (IC50, μM) A431
[3] = Pathological analysis of tumor-bearing mice after 14 consecutive days of administration; format: in vivo
H1975 cell xenograft = H1975 cell xenograft tumor assay; format: in vivo, BALB/c nude mice; settings: for tumor recurrence after administration was stopped for 1 month (FIG. 2): H1975 xenograft
Experimental: Purpose of experiment: H1975 transplanted BALB/c nude mice were orally administered (PO) with a substance to be tested for 14 consecutive days. The body weight and tumor size of nude mice were observed and recorded.
H1975 cells were obtained from Shanghai Institute of Materia Medica. […] Cells were fluid-changed and passaged for one time every 2-3 days and expanded. When the desired amount of cells was achieved, transplantation of cells was performed.
(§1) 40 male BALB/c nude mice, aged 4-5 weeks and weighing 17-23 g, were purchased from Shanghai Bikai, placed in an animal room environment for 2-3 days, and then seeded with cells. Cell suspension was subcutaneously injected at forelimb of the nude mouse rich in capillaries, and each mouse was injected with 0.1 mL of cell suspension.
(§2) Appropriate amount of a substance to be tested was weighed, suspended in 14 mL of DMSO-PEG400 saline solution (DMSO:PEG400:saline=1:30:69) respectively, formulated according to the following table, suspended or dissolved by ultrasonic wave, filled into vials and sealed, and reserved in a 4° C. refrigerator for further use.
(§3) The length and width of a tumor and body weight of a mouse were recorded at least twice a week. The tumor size is calculated as V=0.5*length*width*width.

[4] = test system: A431 cell xenograft (EGFR wild-type); assay: A431 cell xenograft tumor assay; format: in vivo, BALB/c nude mice; settings: 25 mg/kg, oral, 14 days
Experimental: Purpose of experiment: A431 xenograft tumor BALB/c nude mice were orally administered (PO) with a substance to be tested for 14 consecutive days. The body weight and tumor size of nude mice were observed and recorded.
Cells were fluid-changed and passaged for one time every 2-3 days and expanded. When the desired amount of cells was achieved, transplantation of cells was performed.
as §1
as §2, with “sealed” for “sealed,”
as §3

[5] = Determination of solubility in water (PBS 20 mM, pH 6.8); format: physicochemical; settings: PBS buffer, aqueous buffer, thermodynamic from solid; pH 6.8, 20 mM PBS; read-out: Solubility (pH 6.8, g/mL)
Outline: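 Compound suspension filtered (0.22 μm PVDF), diluted in 50% methanol/50% PBS, absorbance read by UV spectrophotometry. Solubility calculated from a standard curve of 0.01–0.05 mg/mL methanol-derived solutions (r > 0.998).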

EGFR-L858R/T790M = target: T1, EGFR-L858R/T790M (Homo sapiens, UniProt P00533, L858R/T790M); assay: Kinase activity test (FRET), EGFR T790M/L858R; format: biochemical; settings: EGFR T790M/L858R; read-out: Inhibitory activity of EGFR on kinase (IC50, nM) T790M/L858R
T1 construct: purchased Invitrogen PV4879
Outline: (§4)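 FRET assay with coumarin/fluorescein-labelled poly(Glu, Tyr)4:1 peptide and ATP, compounds at 5.1×10^−11 to 1.0×10^−6 mol/L final. Kinase reaction 1.5 h at room temperature, then 1 h development cleaving unphosphorylated peptide.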

Wild type EGFR = target: T2, Wild type EGFR (Homo sapiens, UniProt P00533); assay: Kinase activity test (FRET), wild type EGFR; format: biochemical; settings: wild type EGFR; read-out: Inhibitory activity of EGFR on kinase (IC50, nM) WT
T2 construct: purchased Invitrogen PV3872
Outline: as §4

T2 sequence (P00533 25-1210): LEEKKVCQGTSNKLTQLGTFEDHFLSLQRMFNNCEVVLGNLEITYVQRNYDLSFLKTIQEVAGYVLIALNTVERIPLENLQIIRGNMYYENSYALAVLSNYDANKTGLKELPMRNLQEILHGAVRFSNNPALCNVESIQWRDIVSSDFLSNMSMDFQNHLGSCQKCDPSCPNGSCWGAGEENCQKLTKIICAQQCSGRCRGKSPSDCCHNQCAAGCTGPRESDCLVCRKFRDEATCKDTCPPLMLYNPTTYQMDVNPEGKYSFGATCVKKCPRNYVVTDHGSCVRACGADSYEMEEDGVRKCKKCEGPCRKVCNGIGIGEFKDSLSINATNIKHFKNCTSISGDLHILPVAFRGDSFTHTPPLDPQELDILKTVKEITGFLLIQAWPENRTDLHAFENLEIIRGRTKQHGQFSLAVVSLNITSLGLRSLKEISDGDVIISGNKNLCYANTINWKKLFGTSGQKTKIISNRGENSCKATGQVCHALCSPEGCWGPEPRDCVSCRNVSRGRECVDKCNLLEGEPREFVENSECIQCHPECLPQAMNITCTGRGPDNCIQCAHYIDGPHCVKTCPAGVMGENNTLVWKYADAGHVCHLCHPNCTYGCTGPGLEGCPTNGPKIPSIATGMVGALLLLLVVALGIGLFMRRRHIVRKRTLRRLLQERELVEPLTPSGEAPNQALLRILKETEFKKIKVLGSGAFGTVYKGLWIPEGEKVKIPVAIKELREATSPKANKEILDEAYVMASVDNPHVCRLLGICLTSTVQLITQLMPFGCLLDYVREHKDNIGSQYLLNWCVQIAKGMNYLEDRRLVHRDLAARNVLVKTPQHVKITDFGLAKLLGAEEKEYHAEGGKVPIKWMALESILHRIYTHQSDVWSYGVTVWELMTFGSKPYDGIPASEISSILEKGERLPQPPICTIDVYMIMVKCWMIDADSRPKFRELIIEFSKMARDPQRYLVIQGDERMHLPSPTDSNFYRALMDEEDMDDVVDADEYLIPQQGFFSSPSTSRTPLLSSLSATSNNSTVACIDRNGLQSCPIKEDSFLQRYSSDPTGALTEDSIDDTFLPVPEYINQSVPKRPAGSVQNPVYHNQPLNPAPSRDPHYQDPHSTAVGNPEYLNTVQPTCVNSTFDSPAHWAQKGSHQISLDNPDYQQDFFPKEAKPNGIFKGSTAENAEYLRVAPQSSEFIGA
T1 sequence (P00533 25-1210 T790M/L858R): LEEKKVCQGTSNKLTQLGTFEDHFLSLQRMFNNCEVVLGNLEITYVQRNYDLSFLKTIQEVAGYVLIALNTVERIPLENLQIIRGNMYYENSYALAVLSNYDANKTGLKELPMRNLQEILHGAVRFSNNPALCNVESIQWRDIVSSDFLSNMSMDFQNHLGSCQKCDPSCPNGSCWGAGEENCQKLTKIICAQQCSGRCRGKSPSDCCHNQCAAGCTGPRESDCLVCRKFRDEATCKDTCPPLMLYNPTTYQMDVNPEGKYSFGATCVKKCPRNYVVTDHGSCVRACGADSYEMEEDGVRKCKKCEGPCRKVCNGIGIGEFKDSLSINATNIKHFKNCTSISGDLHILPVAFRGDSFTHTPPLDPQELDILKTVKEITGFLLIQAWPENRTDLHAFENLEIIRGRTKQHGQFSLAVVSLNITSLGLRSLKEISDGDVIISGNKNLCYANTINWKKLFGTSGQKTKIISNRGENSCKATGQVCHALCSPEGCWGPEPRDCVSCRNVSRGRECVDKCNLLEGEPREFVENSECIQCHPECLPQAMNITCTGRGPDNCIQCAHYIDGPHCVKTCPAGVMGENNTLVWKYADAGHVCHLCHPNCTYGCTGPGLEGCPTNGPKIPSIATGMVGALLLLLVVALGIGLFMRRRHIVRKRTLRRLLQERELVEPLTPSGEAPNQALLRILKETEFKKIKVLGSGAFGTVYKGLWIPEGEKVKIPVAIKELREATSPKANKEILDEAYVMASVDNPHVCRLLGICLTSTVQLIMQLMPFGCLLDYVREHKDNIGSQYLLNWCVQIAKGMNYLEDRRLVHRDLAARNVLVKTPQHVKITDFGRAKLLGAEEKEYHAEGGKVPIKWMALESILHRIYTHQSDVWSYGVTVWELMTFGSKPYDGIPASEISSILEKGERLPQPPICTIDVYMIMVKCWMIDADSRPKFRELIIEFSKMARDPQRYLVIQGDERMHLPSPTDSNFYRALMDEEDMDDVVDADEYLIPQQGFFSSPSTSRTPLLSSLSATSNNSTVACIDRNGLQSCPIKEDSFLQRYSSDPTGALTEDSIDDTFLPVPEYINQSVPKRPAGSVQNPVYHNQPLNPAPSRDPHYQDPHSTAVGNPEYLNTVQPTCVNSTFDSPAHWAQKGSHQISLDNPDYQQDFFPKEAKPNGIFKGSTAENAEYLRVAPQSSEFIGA

Row | IC50 [1] [µM] | IC50 [2] [µM] | solubility [5] [µg/mL] | IC50 (EGFR-L858R/T790M) [nM] | IC50 (Wild type EGFR) [nM] | melting point [°C] | Structure (SMILES) | pathology, brain tissue (FIG. 5E) [3] | pathology, heart tissue (FIG. 5G) [3] | pathology, intestine tissue (FIG. 5A) [3] | pathology, kidney tissue (FIG. 5F) [3] | pathology, liver tissue (FIG. 5C) [3] | pathology, lung tissue (FIG. 5B) [3] | pathology, tumor tissue (FIG. 5D) [3] | effect on tumor size in H1975 xenograft (FIG. 2) (H1975 cell xenograft; 25 mg/kg) | tumor recurrence after administration was stopped for 1 month (FIG. 2) (H1975 cell xenograft; 25 mg/kg) | tumor size in EGFR wild-type A431 cell xenograft model (FIG. 3) [4] | efficacy in H1975 xenograft (FIG. 2), 25 mg/kg versus AZD9291 25 mg/kg (H1975 cell xenograft; 25 mg/kg) | efficacy in H1975 xenograft (FIG. 2), 10 mg/kg versus CO-1686 50 mg/kg (H1975 cell xenograft; Compound 14 10 mg/kg, CO-1686 50 mg/kg) | efficacy in H1975 cell xenograft model (FIG. 1) (H1975 cell xenograft; orally administered for 14 days, versus CO-1686) | selectivity on wild-type EGFR in A431 xenograft (FIG. 3) ([4]; versus afatinib)
1 | 0.018 | 1.73 | < 10 | 0.2 | 0.5 | 265 to 265.2 | C=CC(=O)Nc1cccc(-n2c(=O)c(-c3ccccc3)nc3cnc(Nc4ccc(N5CCN(C)CC5)c(C)c4)nc32)c1 [Compound 47, N-(3-(2-((3-methyl-4-(4-methyl-1-piperazinyl)phenyl)amino)-7-oxy-6-phenyl-8(7H)pteridinyl)phenyl)acrylamide] |  |  |  |  |  |  |  |  |  |  |  |  |  | 
2 | 0.031 | 0.64 | < 10 | 20.8 | 362 | > 300 | C=CC(=O)Nc1cccc(-n2c(=O)c(-c3ccccc3)nc3cnc(Nc4ccc(N5CCC(N6CCN(C)CC6)CC5)cc4OC)nc32)c1 [Compound 48, N-(3-(2-((2-methoxy-4-(4-(4-methyl-1-piperazinyl)piperidinyl)phenyl)amino)-7-oxo-6-phenyl-8(7H)pteridinyl)phenyl)acrylamide] |  |  |  |  |  |  |  |  |  |  |  |  |  | 
3 | 1.24 | 1.11 | 719 (≈ 1260 µM) | 86.9 | 2.7 | 117.9 to 118.2 | C=CC(=O)N1CC[C@H](n2c(=O)c(C3CCCCC3)nc3cnc(Nc4ccc(N5CCN(C)CC5)cc4OC)nc32)C1 [Compound 50, (S)-8-(1-acryloyl-3-pyrrolidinyl)-6-cyclohexyl-2-((2-methoxy-4-(4-methyl-1-piperazinyl)phenyl)amino)-7(8H)pteridinone] |  |  |  |  |  |  |  |  |  |  |  |  |  | 
4 | 5.34 | 2.06 | < 10 | 251 | 16.6 | 235.5 to 235.7 | COc1cc(N2CCN(C)CC2)ccc1Nc1ncc2nc(-c3ccccc3)c(=O)n(-c3cccc(N)c3)c2n1 [Compound 51, 8-(3-aminophenyl)-2-((2-methoxy-4-(4-methyl-1-piperazinyl)phenyl)amino)-6-phenyl-7(8H)pteridinone] |  |  |  |  |  |  |  |  |  |  |  |  |  | 
5 | 0.044 | 1.46 | < 10 | 0.6 | 1.3 | 262.3 to 262.7 | C=CC(=O)Nc1cccc(-n2c(=O)c(-c3ccc(F)cc3)nc3cnc(Nc4ccc(N5CCN(C)CC5)cc4OC)nc32)c1 [Compound 52, N-(3-(6-(4-fluorophenyl)-2-((2-methoxy-4-(4-methyl-1-piperazinyl)phenyl)amino)-7-oxo-8(7H)pteridinyl)phenyl)acrylamide] |  |  |  |  |  |  |  |  |  |  |  |  |  | 
6 | 1.06 | 4.1 | < 10 | 3.5 | 1.5 | 296.5 to 297.3 | C=CC(=O)Nc1cccc(-n2c(=O)c(-c3ccc(OC)cc3)nc3cnc(Nc4ccc(N5CCN(C)CC5)cc4OC)nc32)c1 [Compound 54, N-(3-(2-((2-methoxy-4-(4-methyl-1-piperazinyl)phenyl)amino)-6-(4-methoxyphenyl)-7-oxo-8(7H)pteridinyl)phenyl)acrylamide] |  |  |  |  |  |  |  |  |  |  |  |  |  | 
7 | 0.262 | 1.3 | < 10 | 6.1 | 6.6 | 291.2 to 291.4 | C=CC(=O)Nc1cccc(-n2c(=O)c(-c3cc(F)cc(F)c3)nc3cnc(Nc4ccc(N5CCN(C)CC5)cc4OC)nc32)c1 [Compound 55, N-(3-(6-(3,5-difluorophenyl)-2-((2-methoxy-4-(4-methyl-1-piperazinyl)phenyl)amino)-7-oxo-8(7H)pteridinyl)phenyl)acrylamide] |  |  |  |  |  |  |  |  |  |  |  |  |  | 
8 | 0.228 | 1.2 | < 10 | 1.7 | 1.6 | > 300 | C=CC(=O)Nc1cccc(-n2c(=O)c(-c3ccc(F)c(F)c3)nc3cnc(Nc4ccc(N5CCN(C)CC5)cc4OC)nc32)c1 [Compound 56, N-(3-(6-(3,4-difluorophenyl)-2-((2-methoxy-4-(4-methyl-1-piperazinyl)phenyl)amino)-7-oxo-8(7H)pteridinyl)phenyl)acrylamide] |  |  |  |  |  |  |  |  |  |  |  |  |  | 
9 | 0.225 | 1.37 | < 10 | 1.8 | 2.8 | > 300 | C=CC(=O)Nc1cccc(-n2c(=O)c(-c3cccc(OC)c3)nc3cnc(Nc4ccc(N5CCN(C)CC5)cc4OC)nc32)c1 [Compound 57, N-(3-(2-((2-methoxy-4-(4-methyl-1-piperazinyl)phenyl)amino)-6-(3-methoxyphenyl)-7-oxo-8(7H)pteridinyl)phenyl)acrylamide] |  |  |  |  |  |  |  |  |  |  |  |  |  | 

Row | Structure (SMILES) | IC50 [1] [µM] | IC50 [2] [µM] | solubility [5] [µg/mL] | IC50 (EGFR-L858R/T790M) [nM] | IC50 (Wild type EGFR) [nM] | melting point [°C] | pathology, brain tissue (FIG. 5E) [3] | pathology, heart tissue (FIG. 5G) [3] | pathology, intestine tissue (FIG. 5A) [3] | pathology, kidney tissue (FIG. 5F) [3] | pathology, liver tissue (FIG. 5C) [3] | pathology, lung tissue (FIG. 5B) [3] | pathology, tumor tissue (FIG. 5D) [3] | effect on tumor size in H1975 xenograft (FIG. 2) (H1975 cell xenograft; 25 mg/kg) | tumor recurrence after administration was stopped for 1 month (FIG. 2) (H1975 cell xenograft; 25 mg/kg) | tumor size in EGFR wild-type A431 cell xenograft model (FIG. 3) [4] | efficacy in H1975 xenograft (FIG. 2), 25 mg/kg versus AZD9291 25 mg/kg (H1975 cell xenograft; 25 mg/kg) | efficacy in H1975 xenograft (FIG. 2), 10 mg/kg versus CO-1686 50 mg/kg (H1975 cell xenograft; Compound 14 10 mg/kg, CO-1686 50 mg/kg) | efficacy in H1975 cell xenograft model (FIG. 1) (H1975 cell xenograft; orally administered for 14 days, versus CO-1686) | selectivity on wild-type EGFR in A431 xenograft (FIG. 3) ([4]; versus afatinib)
10 | C=CC(=O)Nc1cc(Nc2nccc(-c3cn(C)c4ccccc34)n2)c(OC)cc1N(C)CCN(C)C [AZD9291, reference compound] | […] | […] |  |  |  |  | normal tissue structure, no pathological change | 1) moderate expansion of myocardial fiber gap in the tissue, as indicated by the black arrow, 2) vacuoles formed in the cytoplasm of the myocardial fibers | inflammatory cell focal infiltration seen in tissue | 1) extensive kidney tubular lumen expansion in tissue, as shown by the black arrow, 2) part of glomerular wall thickening, as shown by the yellow arrow, and 3) visible transparent tube | 1) more severe liver injury, extensive hepatic sinusoids dilatation, as indicated by the black arrow, and 2) visible necrosis in liver tissue | pulmonary congestion, interstitial edema | moderate necrosis of cells in the entire tissues | effectively reduce the size of a tumor | […] | the size of the tumor did not substantially change |  |  |  | 
11 | C=CC(=O)Nc1cccc(-n2c(=O)c(-c3ccccc3)nc3cnc(Nc4ccc(N5CCN(C)CC5)cc4OC)nc32)c1 [Compound 14, N-(3-(2-((2-methoxy-4-(4-methyl-1-piperazinyl)phenyl)amino)-7-oxo-6-phenyl-8(7H)-pteridinyl)phenyl)acrylamide] | 0.014 | 4.18 | 9.7 (≈ 16.5 µM) | 1 | 10.5 |  | normal tissue structure, no pathological change | moderate expansion of myocardial fiber gap in the tissue | mucosal inflammatory cell focal infiltration | 1) a part of glomerular wall in the tissue thickening, as shown by the black arrow, and 2) no significant abnormality | 1) the extensive hepatic sinusoids dilatation in the entire tissue, as indicated by the black arrow, and 2) visible mild fatty degeneration in liver tissue, with small droplets of lipid | normal tissue structure, no pathological change | moderate necrosis of cells in the entire tissues | effectively reduce the size of a tumor | the tumor did not recur | the size of the tumor did not substantially change | comparable efficacy to AZD9291 | better efficacy over CO-1686 | superior efficacy over CO-1686 | significantly better than afatinib
